Each structure is given as a SMILES string. Like-named read-outs stand apart in the source and are kept apart here.

From article PMC5382548 (Scientific Reports, 2015) come the findings set out here.

Test [1] concerns T-loop, a 26-mer hairpin double-stranded DNA. The experiment in a line: FRET melting assay, T-loop hairpin ds-DNA. In kind it is binding. The note with it: ds-DNA 0.2 μM, ligand 1 μM, K-cacodylate buffer pH 7.4, 60 mM K+. The procedure: Fluorescence resonance energy transfer (FRET) studies with DNA sequences labelled at the 5′ and 3′ ends, were conducted to evaluate the G4 DNA stabilizing properties of IQcs (at 0.1 to 5 μM ligand concentrations). The G4-forming sequence KRAS21R[11], together with T-loop, a 26-mer hairpin double-stranded DNA (ds-DNA) sequence were used in the first screening assay. Reproducible IQc dose-dependent melting curves (Sup. Inf.; Figure S3) and stabilization temperature (ΔTm) values were obtained (Figure 2 and Table S5).
Figure 2 FRET stabilization temperatures (ΔTm) of KRAS21R G4 and hairpin ds-DNA (T-loop) at 0.2 μM, in K-cacodylate buffer (pH = 7.4, 60 mM K^+), stabilized by IQc derivatives and TMPyP4 at 1 μM. ^a) SD ≤ 0.2°C. TEXT PRINTED IN THE PICTURE: TMPyP4: ΔTm / °C ^a) (T-Loop): 16.0; ΔTm / °C ^a) (KRAS21R): 25.1 | 3e: ΔTm / °C ^a) (T-Loop): 6.5; ΔTm / °C ^a) (KRAS21R): 22.0 | 3d: ΔTm / °C ^a) (T-Loop): 5.6; ΔTm / °C ^a) (KRAS21R): 19.9 | 2d: ΔTm / °C ^a) (T-Loop): 6.1; ΔTm / °C ^a) (KRAS21R): 15.1 | 2a: ΔTm / °C ^a) (T-Loop): 1.5; ΔTm / °C ^a) (KRAS21R): 4.4 […]
Oligonucleotide sequences were purchased from Eurofins MWG Synthesis GmbH, Germany or STAB VIDA Genomics Lab, Caparica, Lisbon, Portugal. The labelled oligonucleotides used in the FRET assays had attached the donor fluorophore FAM (6-carboxyfluorescein) and the acceptor fluorophore TAMRA (6-carboxytetramethylrhodamine): KRAS21R: 5′-FAM-[…]-TAMRA-3′; KRAS32R: 5′-FAM-[…]-TAMRA-3′; UTR-1: 5′-FAM-GCGGCGGCGGAGG-TAMRA-3′; UTR-2: 5′-FAM-[…]-TAMRA-3; T-Loop:5′-FAM-[…]-TAMRA-3′; F21T: 5′-FAM-[…]-TAMRA-3′. Non-labelled oligonucleotides were used in FRET competition assays and in the spectroscopic studies: ds26: - d(5′-CAATCGGATCGAATT CGATCCGATTG-3′); KRAS21R: 5′-[…]-3′; HT21: 5′-[…]-3′. Each oligonucleotide was initially diluted to a storage solution at 100 μM in nuclease-free water (not DEPC-treated), purchased from Ambion Applied Biosystems UK.
The ability of indolo[3,2-c]quinolines to stabilize DNA sequences was investigated using a Fluorescence Resonance Energy Transfer (FRET) assay as reported elsewhere.
Figure S3 (cont.)| Concentration-dependent (0.1, 0.5, 1, 2, 3, 4 and 5 µM) FRET melting profiles of G4 structures and T-loop DNA with indolo[3,2-c]quinoline derivatives 1a, 2a-g and 3d-j in K-cacodylate buffer (pH 7.4, 60 mM K+). […]
Table S5 | FRET stabilization temperatures (ΔTm) of G4s sequences and ds-DNA (0.2 µM) stabilized by […]

For test [2], the system named is HEK293T (embryonic kidney). As to the kind of experiment: MTS short-term cytotoxicity assay, HEK293T. In kind it is cell-based. To be noted: Homo sapiens, HEK-293T, 72 h, read-out: IC50 HEK293T. The procedure: Short-term anti-proliferative assays were carried out by two different assays using a panel of human cancer and non-malignant human cell lines. […] The transformed human embryonic kidney cell line HEK293T (wt KRAS) was sensitive to all tested drugs, including TMPyP4, a cationic porphyrin established as a G4 ligand, as well as the anticancer drug 5-fluorouracil (5-FU).
HCT116 human colon carcinoma cells, SW620 human colorectal adenocarcinoma and HEK293 T human embryonic kidney cells were grown in Dulbecco's modified Eagle's medium (DMEM) supplemented with 10% fetal bovine serum, and 1% antibiotic/antimycotic (Invitrogen, Grand Island, NY, USA) and maintained at 37°C in a humidified atmosphere of 5% CO2. Cells were seeded in 96 well plates at 5.000 cells/well. Twenty-four hours after cell plating, media was removed and replaced with fresh media containing test compounds and 5-FU (Sigma), a common cytotoxic agent used in colon cancer treatmen, or vehicle control (DMSO). Following 72 h of compound exposure, cell viability was evaluated using the CellTiter 96 AQueous Non-Radioactive Cell Proliferation Assay (Promega, Madison, WI, USA), using 3-(4,5-dimethylthiazol-2-yl)-5-(3-carboxymethoxyphenyl)-2-(4-sulfophenyl)-2H-tetrazolium, inner salt (MTS) as previously described. Cell viability data were expressed as mean ± SEM or mean ± SD from at least three independent experiments. IC50 and IC65 values were determined using GaphPad Prism v.5.00 (GraphPad Software). (Performed at Cell Function and Therapeutic Targeting Group, iMed.ULisboa)

Test [3] deals with F21T (DNA, G4) GGGTTAGGGTAGGGTTAGGG
The experiment in a line: FRET melting. The note with it: 60 mM K+; K-cacodylate pH 7.4; 0.2 μM DNA, 1 μM compound; SD ≤ 0.2.

As a reminder, the IC50 is the midpoint of a concentration-inhibition curve. By ΔTm is commonly meant the change in melting temperature against a reference sample. Turning to `CCN(CC)CCCNc1ccc2c(c1)c1[nH]c3ccccc3c1c[n+]2C` [2d], the “FRET stabilization temperature ΔTm (T-loop)” value in test [1] worked out at 6.1 °C. For the same molecule, the IC50 in test [2] (MTS assay) amounted to 640 nM. For the same molecule, the ΔTm in test [3] came to 17.7 °C.
Taken in the same sequence, the figures for `Cn1cc2c3ccccc3nc-2c2cc(Br)ccc21` [2a, 2-bromo-5-methyl-indolo[3,2-c]quinoline] were 1.5 °C, 300 nM and 5.6 °C.
As for `CCN(CC)CCCNc1ccc2[nH]c3c(c[n+](C)c4ccc(NCCCN(CC)CC)cc34)c2c1.[Cl-]` [3d], the “FRET stabilization temperature ΔTm (T-loop)” value in test [1] worked out at 5.6 °C. In test [2] (MTS assay), the IC50 is 6570 nM.
Consider `C[n+]1ccc(-c2c3nc(c(-c4cc[n+](C)cc4)c4ccc([nH]4)c(-c4cc[n+](C)cc4)c4ccc([nH]4)c(-c4cc[n+](C)cc4)c4nc2C=C4)C=C3)cc1` [TMPyP4, reference compound], for which the “FRET stabilization temperature ΔTm (T-loop)” value in test [1] was 16.0 °C. Also, the IC50 in test [2] worked out at 2970 nM.
In the case of `CCN(CC)CCCNc1ccc2c(c1)[nH]c1c2c[n+](C)c2ccc(NCCCN(CC)CC)cc12.[Cl-]` [3e], the “FRET stabilization temperature ΔTm (T-loop)” value in test [1] came out at 6.5 °C. Besides, the IC50 in test [2] (MTS assay) was 3120 nM. Also, the shift in melting temperature (ΔTm) in test [3] was 30.7 °C.
